# Data published in patent US10154957B2, “Microneedle device having a peptide therapeutic agent and an amino acid and methods of making and using the same” (3M INNOVATIVE PROPERTIES COMPANY, priority 2011, dated 2018).
# Experiment: Percent purity of PTHrP analogue (10 mg/mL formulations) in coating on arrays stored at 25° C./60% RH or 5° C./ambient RH (HPLC)
# Type: physicochemical
# Experimental: The protein or polypeptide content in the formulation coated on the microneedle arrays was determined using an Agilent 1100 HPLC system (Agilent Technologies, Wilmington, Del.) equipped with a binary pump, well-plated thermostated autosampler, thermostated column compartment, and a diode array UV detector. A Zorbax 300SB-C8 column (Agilent Technologies, Wilmington, Del.) having a 5 μm particle size and 2.1×150 mm inner diameter was used for the separations. The column was maintained at 50° C. The mobile phase consisted of two eluents. Eluent A was 0.1% TFA (trifluoroacetic acid) in water and eluent B was 0.1% TFA in acetonitrile (Spectrum Chemical, New Brunswick, N.J.). A linear gradient from 80/20 to 50/50 (A/B) was applied over 30 minutes. The flow rate was 0.4 mL/minute and the UV detection wavelength was set at 214 nm. The total run time was 34 minutes and the sample injection volume was 15 μL.
# A sample formulation containing 10 mg/mL of [Glu^22,25,Leu^23,28,31,Aib^29,Lys^26,30]hPTHrP(1-34)NH2 and 10 mg/mL of L-histidine monohydrochloride (His-HCl) in PBS was prepared. A control formulation was also prepared containing 10 mg/mL of [Glu^22,25,Leu^23,28,31,Aib^29,Lys^26,30]hPTHrP(1-34)NH2 in PBS. […] Microneedle arrays were coated with either the sample or the control formulation. The coating was applied by dropwise addition of 40 μL of the formulation to the portion of the array defined by the octagon shaped pattern of microneedles. The coated arrays (both sample and control formulation coated) were dried in an oven at 35° C. for 1.5 hours followed by 30° C. for 15 hours.
# After drying, the coated arrays were placed in a storage chamber that was maintained at either 25° C./60% RH or 5° C./ambient RH. The [Glu^22,25,Leu^23,28,31,Aib^29,Lys^26,30]hPTHrP(1-34)NH2 content of the coated arrays was determined following storage in the chamber for 7 days, 14 days, 28 days, and 2 months. The initial [Glu^22,25,Leu^23,28,31,Aib^29,Lys^26,30]hPTHrP(1-34)NH2 content was also determined using freshly coated arrays (both sample and control formulation coated). The arrays used to determine initial content were stored in a refrigerator at about 4° C. and analyzed within one day of being prepared. At the designated time point, an array was taken from the chamber and washed with PBS (3.5 mL) to remove the coating from the array. An aliquot of the resulting wash solution was analyzed for [Glu^22,25,Leu^23,28,31,Aib^29,Lys^26,30]hPTHrP(1-34)NH2 content using the HPLC method described above. The results were quantified against an external standard of [Glu^22,25,Leu^23,28,31,Aib^29,Lys^26,30]hPTHrP(1-34)NH2. At each time point, the percent purity of [Glu^22,25,Leu^23,28,31,Aib^29,Lys^26,30]hPTHrP(1-34)NH2 in the coating was determined by measuring the peak area for [Glu^22,25,Leu^23,28,31,Aib^29,Lys^26,30]hPTHrP(1-34)NH2 in the selected coating and dividing it by the total peak area measured for all [Glu^22,25,Leu^23,28,31,Aib^29,Lys^26,30]hPTHrP(1-34)NH2 related peaks.
# The same procedure as described in Example 10 was used with the exception that the sample formulation contained 10 mg/mL of L-arginine hydrochloride, instead of L-histidine monohydrochloride.
substance,measurement,setting,value
"[Glu^22,25,Leu^23,28,31,Aib^29,Lys^26,30]hPTHrP(1-34)NH2","Percent Purity of [Glu^22,25, Leu^23,28,31, Aib^29, Lys^26,30]hPTHrP(1-34)NH2","Amino Acid L-Arginine (Arg-HCl 10 mg/mL), peptide in PBS, Storage Condition 5° C./ambient RH, 0 day",99.0%
same,"Percent Purity of [Glu^22,25, Leu^23,28,31, Aib^29, Lys^26,30]hPTHrP(1-34)NH2","Amino Acid L-Arginine (Arg-HCl 10 mg/mL), peptide in PBS, Storage Condition 5° C./ambient RH, 2 months",98.4%
same,"Percent Purity of [Glu^22,25, Leu^23,28,31, Aib^29, Lys^26,30]hPTHrP(1-34)NH2","Amino Acid L-Arginine (Arg-HCl 10 mg/mL), peptide in PBS, Storage Condition 5° C./ambient RH, 7 day",98.8%
same,"Percent Purity of [Glu^22,25, Leu^23,28,31, Aib^29, Lys^26,30]hPTHrP(1-34)NH2","Amino Acid L-Arginine (Arg-HCl 10 mg/mL), peptide in PBS, Storage Condition 5° C./ambient RH, 14 day",98.8%
same,"Percent Purity of [Glu^22,25, Leu^23,28,31, Aib^29, Lys^26,30]hPTHrP(1-34)NH2","Amino Acid L-Arginine (Arg-HCl 10 mg/mL), peptide in PBS, Storage Condition 5° C./ambient RH, 28 day",98.8%
same,"Percent Purity of [Glu^22,25, Leu^23,28,31, Aib^29, Lys^26,30]hPTHrP(1-34)NH2","Amino Acid L-Arginine (Arg-HCl 10 mg/mL), peptide in PBS, Storage Condition 25° C./60% RH, 0 day",99.0%
same,"Percent Purity of [Glu^22,25, Leu^23,28,31, Aib^29, Lys^26,30]hPTHrP(1-34)NH2","Amino Acid L-Arginine (Arg-HCl 10 mg/mL), peptide in PBS, Storage Condition 25° C./60% RH, 2 months",97.8%
same,"Percent Purity of [Glu^22,25, Leu^23,28,31, Aib^29, Lys^26,30]hPTHrP(1-34)NH2","Amino Acid L-Arginine (Arg-HCl 10 mg/mL), peptide in PBS, Storage Condition 25° C./60% RH, 7 day",98.8%
same,"Percent Purity of [Glu^22,25, Leu^23,28,31, Aib^29, Lys^26,30]hPTHrP(1-34)NH2","Amino Acid L-Arginine (Arg-HCl 10 mg/mL), peptide in PBS, Storage Condition 25° C./60% RH, 14 day",98.6%
same,"Percent Purity of [Glu^22,25, Leu^23,28,31, Aib^29, Lys^26,30]hPTHrP(1-34)NH2","Amino Acid L-Arginine (Arg-HCl 10 mg/mL), peptide in PBS, Storage Condition 25° C./60% RH, 28 day",98.7%
same,"Percent Purity of [Glu^22,25, Leu^23,28,31, Aib^29, Lys^26,30]hPTHrP(1-34)NH2","Amino Acid L-Histidine (His-HCl 10 mg/mL), peptide 10 mg/mL in PBS, Storage Condition 5° C./ambient RH, 2 months",98.7%
same,"Percent Purity of [Glu^22,25, Leu^23,28,31, Aib^29, Lys^26,30]hPTHrP(1-34)NH2","Amino Acid L-Histidine (His-HCl 10 mg/mL), peptide 10 mg/mL in PBS, Storage Condition 5° C./ambient RH, Day 7",98.9%
same,"Percent Purity of [Glu^22,25, Leu^23,28,31, Aib^29, Lys^26,30]hPTHrP(1-34)NH2","Amino Acid L-Histidine (His-HCl 10 mg/mL), peptide 10 mg/mL in PBS, Storage Condition 5° C./ambient RH, Day 14",98.9%
same,"Percent Purity of [Glu^22,25, Leu^23,28,31, Aib^29, Lys^26,30]hPTHrP(1-34)NH2","Amino Acid L-Histidine (His-HCl 10 mg/mL), peptide 10 mg/mL in PBS, Storage Condition 5° C./ambient RH, Day 28",98.9%
same,"Percent Purity of [Glu^22,25, Leu^23,28,31, Aib^29, Lys^26,30]hPTHrP(1-34)NH2","Amino Acid L-Histidine (His-HCl 10 mg/mL), peptide 10 mg/mL in PBS, Storage Condition 5° C./ambient RH, Initial",99.0%
same,"Percent Purity of [Glu^22,25, Leu^23,28,31, Aib^29, Lys^26,30]hPTHrP(1-34)NH2","Amino Acid L-Histidine (His-HCl 10 mg/mL), peptide 10 mg/mL in PBS, Storage Condition 25° C./60% RH, 2 months",98.6%
same,"Percent Purity of [Glu^22,25, Leu^23,28,31, Aib^29, Lys^26,30]hPTHrP(1-34)NH2","Amino Acid L-Histidine (His-HCl 10 mg/mL), peptide 10 mg/mL in PBS, Storage Condition 25° C./60% RH, Day 7",98.9%
same,"Percent Purity of [Glu^22,25, Leu^23,28,31, Aib^29, Lys^26,30]hPTHrP(1-34)NH2","Amino Acid L-Histidine (His-HCl 10 mg/mL), peptide 10 mg/mL in PBS, Storage Condition 25° C./60% RH, Day 14",98.8%
same,"Percent Purity of [Glu^22,25, Leu^23,28,31, Aib^29, Lys^26,30]hPTHrP(1-34)NH2","Amino Acid L-Histidine (His-HCl 10 mg/mL), peptide 10 mg/mL in PBS, Storage Condition 25° C./60% RH, Day 28",98.9%
same,"Percent Purity of [Glu^22,25, Leu^23,28,31, Aib^29, Lys^26,30]hPTHrP(1-34)NH2","Amino Acid L-Histidine (His-HCl 10 mg/mL), peptide 10 mg/mL in PBS, Storage Condition 25° C./60% RH, Initial",99.0%
same,"Percent Purity of [Glu^22,25, Leu^23,28,31, Aib^29, Lys^26,30]hPTHrP(1-34)NH2","Amino Acid None (control), peptide 10 mg/mL in PBS, Storage Condition 5° C./ambient RH, 2 months",97.3%
same,"Percent Purity of [Glu^22,25, Leu^23,28,31, Aib^29, Lys^26,30]hPTHrP(1-34)NH2","Amino Acid None (control), peptide 10 mg/mL in PBS, Storage Condition 5° C./ambient RH, Day 7",98.2%
same,"Percent Purity of [Glu^22,25, Leu^23,28,31, Aib^29, Lys^26,30]hPTHrP(1-34)NH2","Amino Acid None (control), peptide 10 mg/mL in PBS, Storage Condition 5° C./ambient RH, Day 14",98.4%
same,"Percent Purity of [Glu^22,25, Leu^23,28,31, Aib^29, Lys^26,30]hPTHrP(1-34)NH2","Amino Acid None (control), peptide 10 mg/mL in PBS, Storage Condition 5° C./ambient RH, Day 28",97.6%
same,"Percent Purity of [Glu^22,25, Leu^23,28,31, Aib^29, Lys^26,30]hPTHrP(1-34)NH2","Amino Acid None (control), peptide 10 mg/mL in PBS, Storage Condition 5° C./ambient RH, Initial",98.7%
same,"Percent Purity of [Glu^22,25, Leu^23,28,31, Aib^29, Lys^26,30]hPTHrP(1-34)NH2","Amino Acid None (control), peptide 10 mg/mL in PBS, Storage Condition 25° C./60% RH, 2 months",96.3%
same,"Percent Purity of [Glu^22,25, Leu^23,28,31, Aib^29, Lys^26,30]hPTHrP(1-34)NH2","Amino Acid None (control), peptide 10 mg/mL in PBS, Storage Condition 25° C./60% RH, Day 7",98.0%
same,"Percent Purity of [Glu^22,25, Leu^23,28,31, Aib^29, Lys^26,30]hPTHrP(1-34)NH2","Amino Acid None (control), peptide 10 mg/mL in PBS, Storage Condition 25° C./60% RH, Day 14",97.7%
same,"Percent Purity of [Glu^22,25, Leu^23,28,31, Aib^29, Lys^26,30]hPTHrP(1-34)NH2","Amino Acid None (control), peptide 10 mg/mL in PBS, Storage Condition 25° C./60% RH, Day 28",97.5%
same,"Percent Purity of [Glu^22,25, Leu^23,28,31, Aib^29, Lys^26,30]hPTHrP(1-34)NH2","Amino Acid None (control), peptide 10 mg/mL in PBS, Storage Condition 25° C./60% RH, Initial",98.7%
